In one assay the test system is CHO-K1. Description: Counterscreen for antagonists of the orexin 1 receptor (OX1R; HCRTR1): Homogeneous time resolved fluorescence (HTRF)-based cell-based dose response assay to identify antagonists of the parental CHO-K1 cell line. [Related pubchem assays (depositor defined):AID434989, AID435008, AID463079, AID485270, AID492963, AID492964, AID492965, AID493232, AID504699, AID504701]. In kind it is functional. The conditions noted are these: Cricetulus griseus.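 Also: potency for inhibition of ATP-stimulated IP1 production as antagonists.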

Assay [1] can be described thus: Counterscreen for antagonists of the orexin 1 receptor (OX1R; HCRTR1): Fluorescence-based cell-based high throughput dose response assay to identify antagonists of the parental CHO cell line. [Related pubchem assays (depositor defined):AID434989, AID435008, AID463079, AID485270, AID492963, AID492964, AID492965, AID493232, AID504699, AID504701]. The class given is functional.

Assay [2] deals with T1, Orexin/Hypocretin receptor type 1 (Homo sapiens, UniProt O43613).
T1 sequence (O43613 whole entry): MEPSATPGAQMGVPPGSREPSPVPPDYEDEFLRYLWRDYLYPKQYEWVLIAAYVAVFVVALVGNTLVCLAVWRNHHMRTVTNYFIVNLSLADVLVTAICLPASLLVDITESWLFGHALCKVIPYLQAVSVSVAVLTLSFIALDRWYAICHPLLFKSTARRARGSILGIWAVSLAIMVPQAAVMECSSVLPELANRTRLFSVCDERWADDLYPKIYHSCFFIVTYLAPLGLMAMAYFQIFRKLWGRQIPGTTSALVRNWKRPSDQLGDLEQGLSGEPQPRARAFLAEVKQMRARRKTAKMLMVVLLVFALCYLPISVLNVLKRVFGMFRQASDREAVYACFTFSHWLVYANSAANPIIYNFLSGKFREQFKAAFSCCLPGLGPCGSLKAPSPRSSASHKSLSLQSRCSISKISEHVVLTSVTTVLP
Description: Homogeneous Time Resolved Fluorescence (HTRF)-based cell-based high throughput dose response assay for antagonists of the orexin 1 receptor (OX1R; HCRTR1). [Related pubchem assays (depositor defined):AID434989, AID435008, AID463079, AID485270, AID492963, AID492964, AID492965, AID493232, AID504717, AID504718]. The class given is functional.

Assay [3] deals with T1, Orexin/Hypocretin receptor type 1. Description: Fluorescence-based cell-based high throughput dose response assay for antagonists of the orexin 1 receptor (OX1R; HCRTR1). [Related pubchem assays (depositor defined):AID434989, AID435008, AID463079, AID485270, AID492963, AID492964, AID492965, AID493232, AID504717, AID504718]. In kind it is functional.
Assay [4] concerns the target T2, Orexin receptor type 2 (Homo sapiens, UniProt O43614). Put plainly: Counterscreen assay for antagonists of the orexin 1 receptor (OX1R; HCRTR1): Fluorescence-based cell-based dose response assay for antagonists of the orexin 2 receptor (OX2R; HCRTR2), run by assay provider. The class given is functional.
In assay [5] the target is T2, Orexin receptor type 2. Description: Counterscreen assay for antagonists of the orexin 1 receptor (OX1R; HCRTR1): Homogeneous Time Resolved Fluorescence (HTRF)-based cell-based dose response assay for antagonists of the orexin 2 receptor (OX2R; HCRTR2), run by assay provider. In kind it is functional.
Assay [6] deals with Testis-specific serine/threonine-protein kinase 2 (Homo sapiens, UniProt Q96PF2). The class given is functional.
Assay [7] can be described thus: viability loss in Mcl1-dependent HMC-1-8 cells, dose response, selectivity assay for A1 inhibitor project, cell-based, luminescence, dry powder (AID 504415). The class given is functional. The conditions noted are these: Homo sapiens.
In assay [8] the target is T3, Ubiquitin-conjugating enzyme E2 N (Homo sapiens, UniProt P61088).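 Also: Dose-response confirmation in a TR-FRET assay detecting UBC13-driven polyubiquitin chain formation, inhibition measured.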
T3 sequence (P61088 whole entry): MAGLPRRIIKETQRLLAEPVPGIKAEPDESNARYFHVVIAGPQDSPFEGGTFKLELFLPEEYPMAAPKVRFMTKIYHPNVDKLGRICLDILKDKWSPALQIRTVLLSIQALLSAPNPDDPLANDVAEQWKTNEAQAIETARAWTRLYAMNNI
In kind it is functional.

The target in assay [9] is Glycogen synthase kinase-3 alpha (Homo sapiens, UniProt P49840). Put plainly: Inhibition of Human GSK-3 alpha Activity Measured in Biochemical System Using Microfluidics - 2063-06_Inhibitor_Dose_DryPowder_Activity_Set2. [Related pubchem assays (depositor defined):AID2709].
Assay [10] deals with T4, Glycogen synthase kinase-3 beta (Homo sapiens, UniProt P49841). Description: Inhibition of Human GSK-3 beta Activity Measured in Biochemical System Using Microfluidics - 2063-05_Inhibitor_Dose_DryPowder_Activity_Set2. [Related pubchem assays (depositor defined):AID2709].
For assay [11], the target named is Cyclin-dependent kinase 5/CDK5 activator 1 (Homo sapiens, UniProt Q00535). Description: CDK5-p25 kinase inhibitors, specificity check, dose response, selectivity assay for GSK-3 alpha inhibitor project, biochemical, microfluidic mobility shift, dry powder (AID 588430).
The target in assay [12] is Protein disulfide-isomerase (Homo sapiens, UniProt P07237). Description: PDI inhibitors, insulin aggregation turbidity, dose response, biochemical, absorbance, cherry-picked samples (AID 602350). In kind it is functional.
Assay [13] addresses T5, Methionyl-tRNA synthetase, putative (Trypanosoma brucei brucei, UniProt Q38C91).
T5 sequence (Q38C91 whole entry): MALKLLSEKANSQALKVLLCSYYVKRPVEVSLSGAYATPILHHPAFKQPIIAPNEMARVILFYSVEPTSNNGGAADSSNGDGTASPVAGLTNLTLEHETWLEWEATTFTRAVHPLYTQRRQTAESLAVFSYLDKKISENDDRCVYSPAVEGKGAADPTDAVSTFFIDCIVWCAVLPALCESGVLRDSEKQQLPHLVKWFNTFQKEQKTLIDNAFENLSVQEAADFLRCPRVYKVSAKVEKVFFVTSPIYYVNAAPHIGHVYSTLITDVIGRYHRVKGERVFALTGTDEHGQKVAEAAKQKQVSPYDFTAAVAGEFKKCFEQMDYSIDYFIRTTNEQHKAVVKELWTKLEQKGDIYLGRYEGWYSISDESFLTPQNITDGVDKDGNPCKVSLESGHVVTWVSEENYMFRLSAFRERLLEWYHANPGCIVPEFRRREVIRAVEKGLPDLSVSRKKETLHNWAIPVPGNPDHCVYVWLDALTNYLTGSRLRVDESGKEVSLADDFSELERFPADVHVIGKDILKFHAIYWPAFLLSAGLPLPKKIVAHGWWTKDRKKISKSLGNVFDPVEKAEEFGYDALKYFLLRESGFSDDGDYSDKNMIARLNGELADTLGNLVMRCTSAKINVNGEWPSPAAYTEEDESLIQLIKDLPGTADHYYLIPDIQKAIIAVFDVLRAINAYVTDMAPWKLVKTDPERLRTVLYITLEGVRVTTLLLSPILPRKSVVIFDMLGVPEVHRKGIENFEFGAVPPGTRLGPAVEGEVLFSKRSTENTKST
In kind it is functional, Trypanosoma brucei brucei strain 927/4 GUTat10.1.

Assay [14] can be described thus: Counterscreen for inhibitors of Trypanosoma brucei methionyl tRNA synthetase (MetRS): Luminescence-based cell-based high throughput dose response assay to identify compounds that are cytotoxic to Jurkat human T lymphocyte cells. The class given is functional.
Assay [15] concerns the target T5, Methionyl-tRNA synthetase, putative. In kind it is functional, Trypanosoma brucei brucei strain 927/4 GUTat10.1. The source holds these as a separate data set.
Assay [16] can be described thus: Luminescence Cell-Based Dose Retest to Confirm Inhibitors of Cancer Stem Cells. [Related pubchem assays (depositor defined):AID2717, AID2721]. The conditions noted are these: Homo sapiens. In kind it is functional.
A further assay concerns INS1. Description: beta cell apoptosis inhibitors, cytokine rescue, dose response, luminescence, retest (AID 449756).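 Also: cell death triggered by IL-1 beta plus TNF-alpha plus IFN-gamma mixture; protective hits raise ATP signal compared with cytokine alone wells.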 In kind it is functional, cell-based. The conditions noted are these: Rattus norvegicus.
Assay [17] has as its target T6, High affinity choline transporter 1 (Homo sapiens, UniProt Q9GZV3).
T6 sequence (Q9GZV3 whole entry): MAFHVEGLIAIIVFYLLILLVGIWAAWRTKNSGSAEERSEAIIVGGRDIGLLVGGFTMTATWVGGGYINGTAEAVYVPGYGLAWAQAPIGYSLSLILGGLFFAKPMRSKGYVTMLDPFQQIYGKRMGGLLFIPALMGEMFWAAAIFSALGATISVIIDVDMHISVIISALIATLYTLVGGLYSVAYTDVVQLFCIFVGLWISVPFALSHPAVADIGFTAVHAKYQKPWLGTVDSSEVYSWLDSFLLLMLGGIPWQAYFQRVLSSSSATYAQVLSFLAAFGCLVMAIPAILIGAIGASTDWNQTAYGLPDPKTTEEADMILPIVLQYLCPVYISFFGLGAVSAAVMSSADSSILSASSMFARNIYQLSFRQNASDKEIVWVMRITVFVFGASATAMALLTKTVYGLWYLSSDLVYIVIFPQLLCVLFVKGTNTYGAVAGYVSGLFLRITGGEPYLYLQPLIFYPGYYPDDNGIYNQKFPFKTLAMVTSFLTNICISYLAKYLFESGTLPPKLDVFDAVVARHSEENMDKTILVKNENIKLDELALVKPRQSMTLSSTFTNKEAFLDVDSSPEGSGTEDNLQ
Description: CHT activators, dose response, cell-based, 10-point CRC, membrane potential dye (AID 602376). In kind it is functional.

A short description of assay [18]: HepG2 cell cytotoxicity, dose response, cytotoxicity control, ATP luminescence, cherry-pick, set 6 (AID 1053125). In kind it is functional, cell-based.
The target of assay [19] is RNA-editing ligase 1, mitochondrial (Trypanosoma brucei brucei, UniProt P86926). Put plainly: TbREL1 ligase inhibitors, dose response, biochemical, fluorescence, Trypanosoma brucei (AID 1117295). The class given is functional.
A short description of assay [20]: cells. The conditions noted are these: A549.
Assay [21] is described as follows: cells. The conditions noted are these: HEK293.
The target in assay [22] is ALK tyrosine kinase receptor (Homo sapiens, UniProt Q9UM73). The class given is functional.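 Also: ALK tested as one member of a kinase panel screen.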
For assay [23], the target named is Serine/threonine-protein kinase pim-1 (Homo sapiens, UniProt P11309). The class given is functional.
For assay [24], the target named is Cell division cycle 7-related protein kinase (Homo sapiens, UniProt O00311). In kind it is functional.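 Also: value obtained from a kinome-wide kinase panel.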
The target in assay [25] is Homeodomain-interacting protein kinase 2 (Homo sapiens, UniProt Q9H2X6). In kind it is functional.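 Also: measured within a kinome-wide kinase profiling panel, HIPK2 being one panel member.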
Assay [26] concerns the target Interleukin-1 receptor-associated kinase 4 (Homo sapiens, UniProt Q9NWZ3). The class given is functional.
Assay [27] concerns the target T4, Glycogen synthase kinase-3 beta. In kind it is functional.
Assay [28] has as its target cAMP-dependent protein kinase catalytic subunit alpha (Homo sapiens, UniProt P17612). The class given is functional.

The structures appear in SMILES notation. Active and inactive are the calls of the source. Bounds are passed on as bounds.

T2 sequence (O43614 whole entry): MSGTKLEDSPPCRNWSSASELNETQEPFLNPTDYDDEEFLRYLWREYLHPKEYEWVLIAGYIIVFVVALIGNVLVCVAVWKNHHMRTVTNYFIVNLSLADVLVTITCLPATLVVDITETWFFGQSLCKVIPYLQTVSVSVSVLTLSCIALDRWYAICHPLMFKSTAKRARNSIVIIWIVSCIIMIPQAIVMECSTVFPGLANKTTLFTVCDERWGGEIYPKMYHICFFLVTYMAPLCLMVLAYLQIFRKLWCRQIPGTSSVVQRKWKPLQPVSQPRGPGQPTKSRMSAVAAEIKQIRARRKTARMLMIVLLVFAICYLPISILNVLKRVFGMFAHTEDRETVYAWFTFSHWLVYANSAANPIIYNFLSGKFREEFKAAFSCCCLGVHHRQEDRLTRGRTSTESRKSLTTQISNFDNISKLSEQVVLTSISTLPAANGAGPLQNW
T4 sequence (P49841 whole entry): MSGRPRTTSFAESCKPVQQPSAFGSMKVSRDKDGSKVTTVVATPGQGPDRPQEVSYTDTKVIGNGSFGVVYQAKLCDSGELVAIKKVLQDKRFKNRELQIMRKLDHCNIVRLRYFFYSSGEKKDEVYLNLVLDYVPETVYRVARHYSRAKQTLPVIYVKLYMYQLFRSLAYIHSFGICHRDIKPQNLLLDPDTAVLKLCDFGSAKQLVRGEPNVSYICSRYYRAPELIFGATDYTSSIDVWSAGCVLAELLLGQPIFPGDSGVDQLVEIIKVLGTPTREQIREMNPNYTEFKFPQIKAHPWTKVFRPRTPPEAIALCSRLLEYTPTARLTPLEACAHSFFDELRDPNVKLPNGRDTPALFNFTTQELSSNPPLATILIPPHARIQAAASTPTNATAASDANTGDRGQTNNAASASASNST
Glycogen synthase kinase-3 alpha, sequence (P49840 whole entry): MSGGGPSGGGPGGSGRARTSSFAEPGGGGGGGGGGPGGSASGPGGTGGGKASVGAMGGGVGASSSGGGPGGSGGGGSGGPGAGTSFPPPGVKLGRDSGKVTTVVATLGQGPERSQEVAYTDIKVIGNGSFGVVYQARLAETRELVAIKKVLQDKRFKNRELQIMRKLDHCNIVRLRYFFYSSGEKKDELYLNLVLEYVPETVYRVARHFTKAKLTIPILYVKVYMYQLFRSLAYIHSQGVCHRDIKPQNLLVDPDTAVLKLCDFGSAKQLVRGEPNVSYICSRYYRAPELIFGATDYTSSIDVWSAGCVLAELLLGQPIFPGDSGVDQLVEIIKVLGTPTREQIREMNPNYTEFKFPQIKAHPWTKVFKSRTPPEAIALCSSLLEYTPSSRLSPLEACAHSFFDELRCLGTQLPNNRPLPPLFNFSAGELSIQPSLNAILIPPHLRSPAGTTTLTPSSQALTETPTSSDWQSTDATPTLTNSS
Interleukin-1 receptor-associated kinase 4, sequence (Q9NWZ3 whole entry): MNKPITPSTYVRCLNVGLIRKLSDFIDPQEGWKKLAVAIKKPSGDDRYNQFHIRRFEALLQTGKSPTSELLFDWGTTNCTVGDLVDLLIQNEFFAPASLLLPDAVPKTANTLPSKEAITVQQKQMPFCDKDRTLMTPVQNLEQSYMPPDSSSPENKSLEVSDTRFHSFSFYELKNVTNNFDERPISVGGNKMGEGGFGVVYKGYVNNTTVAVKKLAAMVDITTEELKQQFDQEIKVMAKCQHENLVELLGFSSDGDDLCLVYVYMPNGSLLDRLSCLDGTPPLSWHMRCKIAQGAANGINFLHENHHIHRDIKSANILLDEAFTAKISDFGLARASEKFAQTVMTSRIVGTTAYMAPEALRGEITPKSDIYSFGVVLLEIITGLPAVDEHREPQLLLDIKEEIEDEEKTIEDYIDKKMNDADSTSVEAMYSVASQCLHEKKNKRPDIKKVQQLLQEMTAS
Cyclin-dependent kinase 5/CDK5 activator 1, sequence (Q00535 whole entry): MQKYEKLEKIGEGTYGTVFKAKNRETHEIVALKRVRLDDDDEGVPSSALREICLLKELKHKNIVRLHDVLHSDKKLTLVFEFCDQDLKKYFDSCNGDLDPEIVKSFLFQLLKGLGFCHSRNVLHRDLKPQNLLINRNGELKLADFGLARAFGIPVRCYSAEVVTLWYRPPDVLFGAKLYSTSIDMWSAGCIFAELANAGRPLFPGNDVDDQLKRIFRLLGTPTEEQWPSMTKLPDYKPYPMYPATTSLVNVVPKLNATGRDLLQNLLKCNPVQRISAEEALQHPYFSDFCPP
Cyclin-dependent kinase 5/CDK5 activator 1, sequence (Q15078 whole entry, further chain): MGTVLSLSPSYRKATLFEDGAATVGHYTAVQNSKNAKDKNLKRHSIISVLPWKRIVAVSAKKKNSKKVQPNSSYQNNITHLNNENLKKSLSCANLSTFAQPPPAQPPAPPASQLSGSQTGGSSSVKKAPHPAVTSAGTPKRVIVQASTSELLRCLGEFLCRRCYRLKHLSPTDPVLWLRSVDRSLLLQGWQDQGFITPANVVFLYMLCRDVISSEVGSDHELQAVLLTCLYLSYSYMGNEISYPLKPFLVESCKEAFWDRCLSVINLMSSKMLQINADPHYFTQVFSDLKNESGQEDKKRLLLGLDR
ALK tyrosine kinase receptor, sequence (Q9UM73 whole entry): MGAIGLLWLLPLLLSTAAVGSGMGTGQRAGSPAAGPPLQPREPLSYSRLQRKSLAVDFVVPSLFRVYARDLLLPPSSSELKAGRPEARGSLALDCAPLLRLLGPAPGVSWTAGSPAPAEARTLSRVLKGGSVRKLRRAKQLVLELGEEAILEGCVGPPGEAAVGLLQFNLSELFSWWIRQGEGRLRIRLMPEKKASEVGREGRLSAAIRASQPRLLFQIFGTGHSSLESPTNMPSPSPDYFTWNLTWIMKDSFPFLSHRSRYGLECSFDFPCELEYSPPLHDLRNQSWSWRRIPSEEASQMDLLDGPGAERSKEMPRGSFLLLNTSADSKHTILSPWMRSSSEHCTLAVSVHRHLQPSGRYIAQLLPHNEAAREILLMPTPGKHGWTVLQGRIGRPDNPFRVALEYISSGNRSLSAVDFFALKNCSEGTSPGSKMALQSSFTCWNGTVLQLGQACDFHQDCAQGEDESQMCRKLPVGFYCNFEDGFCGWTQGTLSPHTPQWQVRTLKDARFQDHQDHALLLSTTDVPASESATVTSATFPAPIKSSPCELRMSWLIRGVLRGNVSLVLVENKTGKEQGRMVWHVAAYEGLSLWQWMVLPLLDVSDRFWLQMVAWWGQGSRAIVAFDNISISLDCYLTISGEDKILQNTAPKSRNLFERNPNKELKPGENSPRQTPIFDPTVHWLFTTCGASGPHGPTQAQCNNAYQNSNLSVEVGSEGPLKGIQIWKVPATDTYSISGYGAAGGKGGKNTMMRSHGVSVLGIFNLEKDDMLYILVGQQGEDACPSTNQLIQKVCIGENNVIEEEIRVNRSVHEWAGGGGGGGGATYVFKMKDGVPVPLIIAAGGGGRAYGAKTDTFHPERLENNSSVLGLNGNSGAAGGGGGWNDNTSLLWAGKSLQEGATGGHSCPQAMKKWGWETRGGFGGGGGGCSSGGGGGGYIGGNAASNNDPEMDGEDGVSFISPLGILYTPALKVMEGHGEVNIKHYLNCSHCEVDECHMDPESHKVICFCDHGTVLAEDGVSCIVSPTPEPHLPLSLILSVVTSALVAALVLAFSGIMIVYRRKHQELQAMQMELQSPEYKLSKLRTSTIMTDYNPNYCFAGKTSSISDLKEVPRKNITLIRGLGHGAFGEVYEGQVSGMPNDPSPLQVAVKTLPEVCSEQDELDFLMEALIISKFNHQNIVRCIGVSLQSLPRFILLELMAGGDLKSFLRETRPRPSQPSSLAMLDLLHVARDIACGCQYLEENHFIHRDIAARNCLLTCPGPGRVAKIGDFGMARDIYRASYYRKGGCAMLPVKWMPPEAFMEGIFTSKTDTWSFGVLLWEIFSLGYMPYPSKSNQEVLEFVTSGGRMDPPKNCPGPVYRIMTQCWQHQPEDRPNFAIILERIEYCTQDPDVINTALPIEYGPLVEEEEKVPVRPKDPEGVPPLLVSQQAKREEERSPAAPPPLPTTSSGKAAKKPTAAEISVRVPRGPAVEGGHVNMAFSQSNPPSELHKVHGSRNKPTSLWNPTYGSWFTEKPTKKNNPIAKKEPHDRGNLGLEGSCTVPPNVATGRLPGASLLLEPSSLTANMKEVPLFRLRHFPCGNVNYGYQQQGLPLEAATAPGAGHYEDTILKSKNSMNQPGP
Protein disulfide-isomerase, sequence (P07237 whole entry): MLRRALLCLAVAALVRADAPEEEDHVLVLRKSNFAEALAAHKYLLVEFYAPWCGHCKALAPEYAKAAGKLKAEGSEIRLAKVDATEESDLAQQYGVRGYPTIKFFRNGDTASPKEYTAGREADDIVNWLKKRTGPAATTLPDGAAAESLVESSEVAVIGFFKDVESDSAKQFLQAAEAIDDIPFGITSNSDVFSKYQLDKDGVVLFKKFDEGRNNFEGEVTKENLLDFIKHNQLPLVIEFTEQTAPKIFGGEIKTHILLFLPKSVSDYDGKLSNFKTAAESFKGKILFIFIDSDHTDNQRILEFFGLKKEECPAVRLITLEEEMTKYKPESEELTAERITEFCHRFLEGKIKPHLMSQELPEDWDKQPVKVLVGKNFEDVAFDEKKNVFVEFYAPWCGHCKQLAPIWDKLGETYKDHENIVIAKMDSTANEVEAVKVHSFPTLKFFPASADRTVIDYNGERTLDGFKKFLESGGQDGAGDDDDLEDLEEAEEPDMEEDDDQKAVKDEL
RNA-editing ligase 1, mitochondrial, sequence (P86926 whole entry): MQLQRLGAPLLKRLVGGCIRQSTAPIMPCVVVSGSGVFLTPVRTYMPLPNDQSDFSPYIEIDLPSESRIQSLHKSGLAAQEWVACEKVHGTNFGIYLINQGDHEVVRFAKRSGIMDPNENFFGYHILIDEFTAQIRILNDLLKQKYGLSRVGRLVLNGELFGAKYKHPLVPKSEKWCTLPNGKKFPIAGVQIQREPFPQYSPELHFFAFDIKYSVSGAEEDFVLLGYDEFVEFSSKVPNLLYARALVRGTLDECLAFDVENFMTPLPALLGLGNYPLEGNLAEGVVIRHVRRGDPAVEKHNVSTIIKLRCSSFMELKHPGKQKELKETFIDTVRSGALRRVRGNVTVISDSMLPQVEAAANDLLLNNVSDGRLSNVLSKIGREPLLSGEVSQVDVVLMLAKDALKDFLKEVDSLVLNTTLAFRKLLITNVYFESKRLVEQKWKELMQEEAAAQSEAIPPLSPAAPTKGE

With `Cc1ccc(-c2cc3nc(-c4ccccc4)cc(N4CCC5(CC4)OCCO5)n3n2)cc1`, the IC50 was > 66.2 µM (inactive) in the assay with CHO-K1; > 49.7 µM (inactive) in assay [1]; 5.68 µM (active) in assay [2]; 17.4 µM (inactive) in assay [3]; 24.9 µM (inactive) at Orexin receptor type 2 [4]; > 50 µM (inactive) at Orexin receptor type 2 [5].
Turning to `CNC(=O)c1cc(Oc2ccc(NC(=O)Nc3ccc(Cl)c(C(F)(F)F)c3)cc2)ccn1` [SORAFENIB], the Ki in assay [6] was > 1.58 µM (inactive).
For the compound `Cc1ccc(Sc2c([N+](=O)[O-])cnc3ccccc23)cc1`, the half-maximal activity concentration (AC50) in assay [7] was 22.9 µM (active).
As to `O/N=C/c1cn(-c2ccccc2)nc1-c1ccc2c(c1)OCCO2`, the IC50 in [8] was > 20 µM (inactive). Also, the AC50 was 984 nM (active) in assay [9], 351 nM (active) in assay [10] and 28.4 µM (active) in assay [11].
For the compound `C[C@H]1CN([C@@H](C)CO)C(=O)Cc2cc(NC(=O)Nc3ccccc3)ccc2O[C@H]1CN(C)Cc1ccccc1`, the AC50 in [12] is 10.3 µM (active). Also, the IC50 is 25.1 µM (inactive) in [13], 27.8 µM (inactive) in assay [14] and 21.4 µM (inactive) in [15].
As to `COc1ccc(C[C@H]2CN3C(=NC[C@@H]3Cc3ccccc3)N2CCNC(=O)CCC2CCCCC2)cc1`, the AC50 in assay [16] is 11.2 µM (active); in the assay with INS1, 5.74 µM (active); in assay [18], 7.94 µM (active); in the assay “cells [20]”, 8.94 µM (active); in the assay “cells [21]”, 13.4 µM (active). The IC50 in assay [8] was > 20 µM (inactive); in assay [19] it was > 96.6 µM (inactive). Besides, in assay [17], the EC50 was 22 µM (active).
In the case of `CN(Cc1ccccc1)c1cc(-c2c[nH]c3ncccc23)cc(Cl)n1`, the Ki was > 5.01 µM (inactive) in assay [22]; 251 nM (active) in assay [23]; 7.94 nM (active) in assay [24]; 158 nM (active) in assay [25]; 200 nM (active) in assay [26]; 39.8 nM (active) in assay [27]. Moreover, in assay [28], the inhibition constant (Ki) is 39.8 nM (active).

These data come from ChEMBL document CHEMBL1201862, “PubChem BioAssay data set” (2004).
